According to PMC12304869 (Obesity (Silver Spring, Md.), 2025):

Key:
[1] = DIO rats: body weight during daily s.c. semaglutide; type: in vivo, male Sprague Dawley rats; settings: n = 9
[2] = type: in vivo, male Sprague Dawley rats; settings: DIO rats
[3] = Phase 2 part 2: pharmacodynamics; type: in vivo, human; settings: part 2b
[4] = cited from earlier work
[5] = cited from earlier work; remark: listed apart in the source

| Substance | body weight loss after 26 days of treatment, mean (SD) ([1]; semaglutide 3 nmol/kg daily s.c.) | body weight loss after 26 days of treatment, mean (SD) ([1]; semaglutide 30 nmol/kg daily s.c.) | body weight loss after 26 days of treatment, mean (SD) ([1]; semaglutide 100 nmol/kg daily s.c.) | cumulative food intake from day 1 to 26, mean (SD) ([2]; vehicle + 30 nmol/kg semaglutide) | mean body weight change after 26 days, mean (SD) ([2]; vehicle + 30 nmol/kg semaglutide daily s.c., n = 9) | change in body weight from baseline (week 32) to EOT (week 48) ([3]; placebo + semaglutide 2.4 mg weekly, ANCOVA estimate, FAS) | change in body weight from baseline to EOT ([3]; placebo + semaglutide 2.4 mg) | weight loss ([4]; semaglutide 2.4 mg alone, over 68 weeks) | half‐life (t1/2) [5] | weight loss after 12 weeks of treatment ([4]; intranasal, 200‐μg dose, participants with obesity, placebo −2.8 kg) | treatment discontinuation due to nausea and vomiting ([4]; phase 1, intranasal 600 μg) |
| --- | --- | --- | --- | --- | --- | --- | --- | --- | --- | --- | --- |
| semaglutide | −8.8% (2.9%) | −14.2% (3.0%) | −17.4% (5.7%) | 389 (53) g | −12.5% (3.4%) | −3.1% | -2.2 kg | 14.9% |  |  |  |
| PYY3‐36: active, Y2‐selective cleaved form of the hormone peptide YY |  |  |  |  |  |  |  |  | roughly 10 min | -3.7 kg | a majority of participants receiving 600 μg discontinued treatment |
